Consider 7 compounds from patent EP0324328B1, “Use of the N-n-butyl derivative of desoxynojirimycin in the manufacture of a medicament inhibiting HIV-Virus” (priority 1987, dated 1989).

The test system of series [1] is HIV. The settings on record: result in words; see Fleet et al., FEBS Lett., In Press, 1988; cited from earlier work.
A further series concerns T-45 cells. In kind it is cell-based, human. The settings on record: for Estimated Cell Growth Virus-uninfected Day 7: no-drug control 1.2x10^6. How it is done:
FIG. 1 is a schematic outline of the test procedure used to assess the cytotoxic effect of test compounds on T-cells either infected or non-infected with HIV and in parallel the HIV inhibitory activity of the test compounds. TCID is the tissue culture infectious dose. Cells were cultured in RPMI-1640 medium with 10% fetal calf serum containing 100 units/ml penicillin G and 100 µg/ml streptomycin.
The assay was run in 96 well plastic microtiter plates in which 0.2 ml of culture medium containing 10^4 T-cells are seeded into each well. RPMI-1640 supplemented with 10% fetal calf serum was used as the culture medium. In each assay, 6 wells are used. Three (1-3) are infected with 10^4 TCID/well of HIV-1 or HIV-2 and to the other three (4-6) culture medium alone is added. Medium is changed at the same intervals for each test compound. The detailed assay procedure is illustrated in Figures 1 and 2.
(§1) The efficacy of the test compounds used in this example was assessed as follows: 0.2 ml of culture medium containing 10^4 T-45 cells were transferred into each well of a 96-well flat-bottomed tissue-culture plastic plate and the cells were allowed to settle at 37°C (see Figure 1). After 4 hours the media were aspirated and replaced with media which contained the test compound. Following overnight incubation the media was aspirated and 10^4 TCID of virus (HIV-1 or HIV-2) was added to each well. Incubation was continued at 37°C in 5% CO2 for 1 hour. Thereafter, growth media containing the various compounds were added and incubation at 37°C was continued. On the fourth day the cell suspensions from each well were split and seeded into two new wells and 0.2 ml of fresh media with compounds was added. This was repeated on the seventh day. Cells were examined by microscopy during days 1 to 10 for the presence of syncytia, growth rate and the appearance of the cytopathic effect (CPE) (giant cells, pycnotic nuclei, loss of refractility). CPE (100%) was defined as no round, refractile, uniform cells remaining; only giant, ballooned pyknotic cells were present. The viability of HIV infected cultures was determined by a rough count/estimate of cells which underwent CPE in relation to round refractile uniform (normal) cells in a given culture.
Quantitative data on the effect of the various compounds on the non-infected cells (cytotoxicity) was obtained by comparison of their growth rate to control cells not exposed to drugs (Table 1). […] In addition, the MOLT-4 cell line was also used.

Series [2] deals with HIV. Put plainly: TCID titre of culture supernatants of T-45 cells infected with HIV, Fig. 4. It is filed as cell-based. The settings on record: T-45 cells infected with HIV, after 10 days in culture; result in words. How it is done:
FIG. 4 is a graphical representation in which the viral titer (determined as TCID) is plotted against the concentration in mg/ml of various of the test compounds (drugs) of FIG. 3 in panels (a) and (b).
Cell free suspensions of the HIV were prepared from infected cultures. The concentration of infectious particles was estimated on end-point titration assay using serial ten-fold dilutions. The approximate number of infectious particles in each preparation was determined by the highest dilution which contains infectious HIV as determined by synctial formation, cytopathicity [Leonard et al., Proc. Natl. Acad. Sci. USA 85, 3570-3574 (1988); Barre-Sinoussi et al., Science 220, 868-870 (1983)] and HIV antigen [Karpas et al., Lancet 1, 695-697 (1985)] synthesis after 10 days of culture with 10^4 T-cells. This represents the concentration of infectious particles, herein defined as the tissue culture infectious dose (TCID).
as §1, with “culture. Cells in wells which were incubated with compounds which appeared to inhibit or reduce HIV replication and in which there was marked cell proliferation were either transferred to larger wells (of a 24-well plate) or divided in order to maintain an approximate constant cell density to promote continuous cell division.” for “culture.”
Quantitative data on the effect of the various compounds on the non-infected cells (cytotoxicity) was obtained by comparison of their growth rate to control cells not exposed to drugs (Table 1). Fig. 4 and Table 2 show the relation between the TCID titre of culture supernatants of T-45 cells infected with HIV after 10 days in culture and the concentration of drug. […] The inability of any of these drugs alone to totally reduce the TCID may be due to heterogeneity of virus production or spread. […] In addition, the MOLT-4 cell line was also used.

Read-outs that look alike come from different tables or passages of the source.

For the compound `O[C@@H]1[C@@H](O)[C@@H](O)CN2CC[C@H](O)[C@@H]12` [L-1,6-diepicastanospermine], the “HIV inhibitory activity / effect on CPE” value in the series with HIV [1] was “neither the epimer L-1,6-diepicastanospermine nor the stereoisomer of castanospermine, L-6-epicastanospermine, were found to be inhibitory”.
As for `OC[C@H]1NC[C@@H](O)[C@@H]1O` [D-enantiomer of 1,4-dideoxy-1,4-imino-arabinitol, 1,4-dideoxy-1,4-imino-arabinitol], the “HIV inhibitory activity / effect on CPE” value in the series with HIV [1] is given as “very little effect on HIV replication”.
For the compound `OC[C@@H]1NC[C@H](O)[C@H]1O` [LAB, 1,4-dideoxy-1,4-imino-L-arabinitol], the “HIV inhibitory activity / effect on CPE” value in the series with HIV [1] is “strong HIV inhibitory activity”. Also, the results for the “Estimated Cell Growth Virus-uninfected Day 7” value in the series with T-45 cells (Dosage 0.10 mg/ml), with T-45 cells (Dosage 0.25 mg/ml) and with T-45 cells (Dosage 0.50 mg/ml) were 1.5x10^6, 1.5x10^6 and 1.0x10^6, respectively. In addition, the cytotoxicity result in the series on T-45 cells (non-infected cells, over the concentration range used (Fig. 3, Table 1), result in words) is recorded as “showed no cytotoxicity over the concentration range used”. Further, the “reduction of TCID titre of culture supernatants” value in the series with HIV [2] is given as “only able to reduce the TCID partially”.
Turning to `O[C@@H]1[C@@H](O)[C@@H](O)CN2CC[C@@H](O)[C@@H]12` [L-6-epicastanospermine], in the series on HIV [1], the “HIV inhibitory activity / effect on CPE” value is given as “neither the epimer L-1,6-diepicastanospermine nor the stereoisomer of castanospermine, L-6-epicastanospermine, were found to be inhibitory”.
Consider `OC[C@@H]1[C@@H](O)[C@H](O)[C@@H](O)CN1Cc1ccccc1` [N-benzyl derivative], for which the “HIV inhibitory activity / effect on CPE” value in the series on HIV [1] is “Neither the azofuranose analog of glucose nor the N-benzyl derivative were found to have an effect on CPE”.
For the compound `OC[C@H]1NCC[C@@H](O)[C@@H]1O` [fagomine], the “HIV inhibitory activity / effect on CPE” value with HIV [1] is “no HIV inhibition was observed”.
As to “N-(5-carboxymethyl-1-pentyl)-1,5-imino-L-fucitol [LFT]”, the “reduction of TCID titre of culture supernatants” value with HIV [2] was “only able to reduce the TCID partially”.
